Results on one compound are retold here after patent EP0979653A1, “REMEDY FOR CHRONIC FATIGUE SYNDROME” (KANEBO, LTD., priority 1996, dated 1998).

SMILES strings stand for the structures. Where a name gives a salt, the structure may show the parent alone.

One series concerns ^51Cr-labelled K562. The series can be described thus: Natural killer (NK) activity of patient B, cytotoxic activity against 51Cr-labelled target cells. Format: in vivo, human. The protocol:
(§1) An injection containing 100 mg of a test compound was intravenously administered to two patients with CFS (A, B), continuously, for 14 days. The measurement of DHAS concentration in plasma was conducted before administration and 13 hours after administration with respect to the first and second days, while the measurement was conducted before administration with regard to the third, fifth, eighth, eleventh and fourteenth days. On the fourteenth day from the day on which first administration was conducted, the patients were questioned about lassitude, weakness and psychoneurotic symptom.
With regard to the patient B, a natural killer (NK) activity was measured after administration on the first day and before administration on the fifteenth day. The measurement of the NK activity was conducted in accordance with the method described in Later Biological Experimental Course, No. 5, Process for Study of Immunobiochemistry (Incorporation of The Japanese Biochemistry Society ed., published by Tokyo Kagaku Dojin Co.), page 186. That is, the NK activity was measured by using, as an indication, a cytotoxic activity determined by using ^51Cr-labelled K562 as a target cell. Incidentally, a ratio of effector cell to target cell (E/T ratio) was set at 10:1 or 20:1.

Series [1] in a line: Measurement of DHAS concentration in plasma of patients with CFS given the injection intravenously. The conditions noted are these: human, iv, 100 mg, 100 mg intravenously daily for 14 days; for concentration at 13 h: 13 hours after administration; for concentration at 48 h / concentration at 72 h / concentration at 120 h / concentration at 192 h / concentration at 264 h / concentration at 336 h: before administration; for concentration at 72 h: 3 days; for concentration at 120 h: 5 days; for concentration at 192 h: 8 days; for concentration at 264 h: 11 days; for concentration at 336 h: 14 days. Format: in vivo. As for the experimental part: as §1

In a further series the test system is patients with CFS. The series can be described thus: Questioning of patients with CFS about lassitude, weakness and psychoneurotic symptom. The conditions noted are these: 100 mg intravenously daily for 14 days. Format: in vivo, human. The protocol:
as §1

In the case of `C[C@]12CC[C@H](OS(=O)(=O)O)CC1=CC[C@@H]1[C@@H]2CC[C@]2(C)C(=O)CC[C@@H]12` [Sodium salt of DHAS, dehydroepiandrosterone sulfate], in the series on ^51Cr-labelled K562 (E/T ratio 10:1, after administration on the fourteenth day (before administration on the first day: 7.2)), the “NK activity (%)” value was found to be 12.1%. Further, in the series with ^51Cr-labelled K562 (E/T ratio 20:1, after administration on the fourteenth day (before administration on the first day: 13.7)), the “NK activity (%)” value is reported as 18.5%. Besides, the concentration at 13 h in series [1] (patient A, 1 day) is 6360 ng/mL. Moreover, in series [1] (patient A, 2 days), the concentration at 13 h is 6340 ng/mL and the concentration at 48 h stood at 2460 ng/mL. In series [1] (patient A), the concentration at 72 h came to 2460 ng/mL, the concentration at 120 h is 2160 ng/mL, the concentration at 192 h was found to be 2140 ng/mL and the concentration at 264 h is 2110 ng/mL. Besides, the concentration at 336 h in series [1] (patient A) came out at 3000 ng/mL. Further, the concentration at 13 h in series [1] (patient B, 1 day) was 8900 ng/mL. Besides, in series [1] (patient B, 2 days), the concentration at 13 h came to 7650 ng/mL and the concentration at 48 h came to 2680 ng/mL. In series [1] (patient B), the concentration at 72 h is 2820 ng/mL, the concentration at 120 h was determined as 4140 ng/mL, the concentration at 192 h was found to be 2050 ng/mL and the concentration at 264 h was 2480 ng/mL. In series [1] (patient B), this compound returned a concentration at 336 h of 2800 ng/mL. For the same compound, in the series with patients with CFS (patient A), the “Degree of improvement on the fourteenth day Lassitude” value is recorded as “improved”, the “Degree of improvement on the fourteenth day Psychoneurotic symptom” value is “Improved” and the “Degree of improvement on the fourteenth day Weakness” value was “Improved”. Further, in the series with patients with CFS (patient B), the “Degree of improvement on the fourteenth day Lassitude” value was “improved”, the “Degree of improvement on the fourteenth day Psychoneurotic symptom” value was “Improved” and the “Degree of improvement on the fourteenth day Weakness” value is reported as “Improved”.
